Columns and labels:
[1] = biological target: T1, PKCδ-GFP fusion protein (Homo sapiens, UniProt Q05655); assay: PKCδ-GFP translocation assay in living CHO-k1 cells (confocal microscopy); assay type: cell-based, Chinese hamster; conditions: for Emax at 1 µM: CHO-K1, 1000 nM compound; for minimum effective concentration required to induce translocation of PKC-GFP to the membrane: tested at 200 and 1000 nM
T1 construct: expressed in transfected cells; host or cells: CHO-k1 (Chinese hamster ovary, ATCC)
Description: (§1) With a panel of compounds bearing diverse functionality at C13, we began to explore how these modifications affect PKC binding and biological function. Because an obvious prerequisite for PKC pathway involvement is binding to PKC, compounds were initially evaluated for PKC affinity in a cell-free competitive binding assay with tritiated phorbol dibutyrate ([^3H]-PDBu). Assays were performed with representative members of both the conventional (PKCα) and novel (PKCδ) PKC families. Subsequently, compounds were assayed for PKC isoform translocation in real time in living cells using an optical assay. Translocation to the plasma membrane is the hallmark of PKC activation[18],[57],[60] and therefore monitoring the subcellular localization of a PKCδ-GFP fusion protein via confocal microscopy offers a convenient method for determining whether a compound enters a cell and engages its PKC isoform target. Finally and of clinical significance, we also determined the effect of compounds on CD22 surface expression in vitro in NALM6 cells, an ALL cell line previously studied in connection with CD22-targeted CAR T cell therapy, and two additional lymphoma cell lines[11],[31],[65].
Scale bar represents 25 μm. Experiments performed in n = 3 biological replicates. b–d Cytosolic fluorescence normalized to t = 0 (time immediately prior to addition of compound to media) and plotted against time. Error bars excluded for clarity (data presented as the mean of n = 3 biological replicates). Individual curves with error bars included in Supplementary Information.
PKCδ-GFP Translocation Assay Protocol
Chinese hamster ovary factor K1 (CHO-k1, ATCC) cells were cultured in F-12 Kaighn’s media (Hyclone, 10% fetal bovine serum, 1% penicillin/streptomycin added, reffered to as F-12 +/+ below) at 37 ° C in an incubator (5% CO2). Cell cultures were maintained by splitting cells 1:3 when they reached ~75-100% confluence (every 2-3 days) as follows:
(Gibco) was used to remove the cells from the culture flask (T75, Falcon). 1 mL of the cell suspension was then added to 9 mL of fresh F-12 +/+ and the sample was sub-cultured until reaching confluence (~2-3 days).
Cells were counted using a Countess II Automated Cell Counter (Fisher). The cell suspension was diluted to 240,000 cells/mL with fresh F-12 +/+ and 2.5 mL of this diluted stock was added to one well in a 6-well plate. The cells were then cultured for 24 hours.
Cells were transfected with Lipofectamine 2000 reagent (Invitrogen) or DA 13:11 at a 10:1 charge […]
F-12 +/+ was aspirated and cells were washed with F-12 -/-. 2 mL of fresh F-12 -/- was then added to each well, taking care not to disturb adherent cells. For each well of CHO-k1 cells, 12.5 µL Lipofectamine 2000 reagent (Invitrogen) was added to 250 µL Opti-MEM reduced serum media (Invitrogen) in a polypropylene tube and incubated for 20 minutes at RT. Meanwhile, for each well, 4 µg of PKCδ-GFP pDNA and 250 µL Opti-MEM reduced serum media was added to a separate polypropylene tube. 250 µL of the Lipofectamine 2000 suspension was added to the DNA suspension and the solution incubated for 30 minutes at RT. 500 µL of the Lipofectamine/DNA suspension was added to the respective wells of the 6-well plate. The cells were then incubated at 37 ° C (5% CO2) for ~24 hrs.
F-12 +/+ was aspirated and cells were washed with F-12 -/-. 2.4 mL of fresh F-12 -/- was then added to each well, taking care not to disturb adherent cells. A 4 µg aliquot of PKCδ-GFP pDNA was added to PBS (pH 5.5, final volume 100 µL). 5.6 µL of DA 13:11 (2 mM stock in DMSO) was then added to the DNA solution, and the mixture was gently mixed (by flicking) for 20 seconds, at which point it was added directly to the respective wells of the 6-well plate.

[2] = test system: PKC; assay: PKC competitive binding assay, isoform not specified; parameters: species or system human
Description: as §1
PKC Binding Assay Protocol […]
competition with 3H-phorbol-12,13-dibutyrate (3H-PDBu) as described below. This procedure entails a glass-fiber filtration method to determine bound radioligand.
Preparation of PKC binding assay buffer
To a 50 mL polypropylene tube was added Tris-HCl (pH 7.4, 1 M, 1 mL), KCl (1 M, 2 mL), CaCl2 (0.1 M, 30 μL), and bovine serum albumin (BSA, 40 mg, Sigma-Aldrich). This mixture was diluted to 20 mL with deionized H2O and mixed gently. The buffer was stored on ice until use. The final […]
Supplementary Table1. PKC binding assay buffer composition.
Preparation of phosphatidylserine (PS) vesicles
For every two assays, 3.5 mg phosphatidylserine (Avanti Polar Lipids, porcine, 25 mg/mL CHCl3 solution) was concentrated by removing chloroform under a stream of nitrogen followed by reduced pressure. The solid PS was suspended as vesicles in freshly prepared PKC binding assay buffer (3.5 mL) by sonicating six times for 30 sec, with a 30 sec rest between sonications (Branson Sonifier 250, power = 2, 50% duty cycle). The resulting milky cloudy mixture (1 mg/mL) was stored […]
Preparation of PKC isoform solution
Assay PKC was prepared by dissolving a 4 μg aliquot of the indicated recombinant human PKC isoform (Invitrogen) into 11.6 mL of PKC binding assay buffer (this amount is sufficient for two assays). The diluted PKC was stored on ice for immediate use.
Preparation of 3H-PDBu solution
3H-PDBu (American Radiolabeled Chemicals, Inc.; 1 mCi/mL acetone solution; specific activity: […]) was diluted 10-fold with DMSO. The resulting 500 nM stock solution was further diluted with DMSO to 30 nM.
Preparation of analog compound dilutions
Compound dilutions were prepared by serially diluting from a chosen "high" concentration by factors of 3 or 4. For each analog compound, seven concentrations were used to define the […]
To a polypropylene tube was added 3.3 mL of 1 mg/mL PS vesicles solution, 11 mL of PKC isoform solution, and 1.1 mL of 30 nM 3H-PDBu solution were added. The resulting solution was vortexed to mix and stored on ice.
PKC binding assay protocol
- Glass-fiber filters (Whatman GF/B) were prepared by soaking them in a solution of […]

[3] = CHO-k1 cells, n = 3, read-out: % Translocation (maximum translocation of PKCδ-GFP to the plasma membrane)

T1 sequence (Q05655 whole entry, the tested form may be a part): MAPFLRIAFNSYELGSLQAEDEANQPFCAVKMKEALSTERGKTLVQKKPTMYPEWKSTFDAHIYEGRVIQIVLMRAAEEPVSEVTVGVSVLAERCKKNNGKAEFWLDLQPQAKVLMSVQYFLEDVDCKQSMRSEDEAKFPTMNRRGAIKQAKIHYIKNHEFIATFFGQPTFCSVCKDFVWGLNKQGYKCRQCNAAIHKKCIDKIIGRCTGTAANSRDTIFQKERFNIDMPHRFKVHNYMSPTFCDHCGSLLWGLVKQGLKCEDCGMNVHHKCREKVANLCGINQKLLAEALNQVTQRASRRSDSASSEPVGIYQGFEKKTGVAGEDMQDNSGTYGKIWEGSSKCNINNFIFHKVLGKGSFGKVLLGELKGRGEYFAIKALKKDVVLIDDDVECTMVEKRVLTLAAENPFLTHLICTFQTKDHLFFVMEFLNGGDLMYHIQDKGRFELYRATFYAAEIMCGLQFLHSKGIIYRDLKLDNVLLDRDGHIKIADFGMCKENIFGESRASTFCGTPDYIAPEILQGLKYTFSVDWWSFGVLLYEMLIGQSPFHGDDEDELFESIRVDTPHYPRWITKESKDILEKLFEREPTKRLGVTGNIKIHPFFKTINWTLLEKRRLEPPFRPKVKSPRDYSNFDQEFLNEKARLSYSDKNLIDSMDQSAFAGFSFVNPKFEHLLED

CCCCCC#CC(=O)O[C@H]1/C(=C/C(=O)OC)C[C@H]2C[C@H]([C@@H](C)O)OC(=O)C[C@H](O)C[C@@H]3C[C@H](OC(C)=O)C(C)(C)[C@](O)(C[C@@H]4C[C@@](O)(CO)C[C@H](/C=C/C(C)(C)[C@]1(O)O2)O4)O3 [SUW203]
% Translocation (maximum translocation of PKCδ-GFP to the plasma membrane) ([1]; 1000 nM compound, CHO-k1 cells, n = 3): 50%
Emax at 1 µM [1, 3]: ~50%
minimum effective concentration required to induce translocation of PKC-GFP to the membrane ([1]; CHO-k1 cells): 1000 nM
PKC binding affinity in words ([2]; conventional and novel PKC isoforms): single-digit nanomolar

CCC/C=C/C=C/C(=O)O[C@H]1/C(=C/C(=O)OC)C[C@H]2C[C@H]([C@@H](C)O)OC(=O)C[C@H](O)C[C@@H]3C[C@H](OC(C)=O)C(C)(C)[C@](O)(C[C@@H]4C[C@H](OC(C)=O)C[C@H](/C=C/C(C)(C)[C@]1(O)O2)O4)O3 [SUW206]
Emax at 0.2 µM ([1]; CHO-K1, 200 nM compound, CHO-k1 cells, n = 3, read-out: % Translocation (maximum translocation of PKCδ-GFP to the plasma membrane)): 60%
minimum effective concentration required to induce translocation of PKC-GFP to the membrane ([1]; CHO-k1 cells): 200 nM

CCCC=CC=CC(=O)OC1C(=CC(=O)OC)CC2CC(C(C)O)OC(=O)CC(O)CC3CC(OC(C)=O)C(C)(C)C(O)(CC4CC(OC(=O)CCC(=O)O)CC(C=CC(C)(C)C1(O)O2)O4)O3 (stereo not shown) [SUW211]
Emax at 1 µM [1, 3]: 20%
minimum effective concentration required to induce translocation of PKC-GFP to the membrane ([1]; CHO-k1 cells): 1000 nM
sustained translocation of PKC ([1]; at up to 1000 nM): did not achieve sustained translocation of PKC
decrease in affinity to PKC ([2]; charged substituents at C13, Table 1 data): 20-100 fold
